Results as given in patent US8652540B2, “Method of using rhein for treating fibrotic conditions and tumors” (priority 2012, dated 2014).
Marks after values point to notes of the source that are not given here.

Experiments:
[1] = system: Col1-α1; test: Real-time PCR, TGF-β-stimulated LTC-14 cells: Col1-α1; assay type: cell-based, rat; conditions: Rhein at 1, 10 and 100 μM; TGF-β 5 ng/mL
Source text: (§1) The synthesized cDNA template was applied to amplifications with rat-specific primers for Tgf-β1, Acta2, Col1-α1 and Mmp2 in a real-time PCR sequencer. Expression of the gene of interest was expressed as a Ct value and normalized to the internal control Gapdh. […] After amplifications by real-time PCR, expression of the gene of interest was expressed as a Ct value and normalized to the internal control Gapdh.

[2] = system: TNF-α; test: Serum TNF-α by ELISA, cerulein-induced chronic pancreatitis mice; assay type: in vivo, C57BL6 mice
Experimental: (§2) C57BL6 mice at age of 6 to 8 weeks with body weight in the range of 20 to 24 grams were used in these experiments. Mice were randomly assigned into 5 groups. Control group received saline injections only; Rhein group was fed with Rhein (≧98% pure) dissolved in 0.5% sodium carboxymethyl cellulose (Sigma, USA) in a single dose of 0.4 mL at 50 mg/kg/day for 6 weeks; Cerulein group received 6 cerulein injections at 50 μg/kg three times a week for 6 weeks; Cer+Rh 6w group received cerulein injections same as Cerulein group plus oral gavage of a single dose of Rhein at 50 mg/kg/day from the first day of experimental period till the end in a total of 6 weeks; Cer+Rh 3w group received cerulein injections same as Cerulein group and Cer+Rh 6w group, but was given with Rhein at 50 mg/kg/day starting the first day of week 4 till the end of experiment in a total of 3 weeks (n=6/group). Upon scarification, pancreata were immediately removed, weighed, trimmed from fat and fixed in 4% paraformaldehyde-phosphate buffered saline (PBS) overnight at 4° C. Samples were then processed, embedded in paraffin wax, sectioned and subjected to Hematoxylin-eosin (H & E) staining or Sirius Red staining Levels of TNF-α· in animal serum samples were determined using commercial ELISA kits. Proteins extracted from pancreatic tissues were subjected to Western blotting analyses.

[3] = system: α-SMA; test: α-SMA expression in pancreatic tissues (immunofluorescence, Western blotting), cerulein-treated mice; assay type: in vivo, C57BL6 mice; conditions: Rhein oral 50 mg/kg/day for 6 weeks
Experimental: as §2

[4] = system: α-SMA; test: Immunofluorescence assay for α-SMA in TGF-β-stimulated LTC-14 cells; assay type: cell-based, rat; conditions: TGF-β 5 ng/mL, Rhein 10 μM
Experimental: To study the effect of Rhein on TGF-β induced expression of fibrotic filament formation, LTC-14 cells were grown on poly-L-lysine coated glass coverslips at a density of 1×10^5 in a 24-well plate pre-incubated with TGF-β (5 ng/mL) for 24 hours before the treatment with or without Rhein (10 μM). At the time of harvest, cells were subjected to immunofluorescence assay for α-SMA immunoreactivities.

[5] = Pancreatic weight and H&E histology, cerulein-induced chronic pancreatitis mice; assay type: in vivo, C57BL6 mice
Experimental: as §2

[6] = system: collagen; test: Sirius Red staining of collagenous proteins in pancreas of CP mice; assay type: in vivo, C57BL6 mice
Experimental: as §2

[7] = system: fibronectin 1 (FN1); test: Western blotting of fibronectin in pancreatic tissues of CP mice; assay type: in vivo, C57BL6 mice; conditions: CP mice treated with Rhein vs non-Rhein-treated CP mice
Experimental: as §2

[8] = system: LTC-14 cells; test: TGF-β induced transformation of PSCs to myofibroblast-like cells (light microscope); assay type: cell-based, rat; conditions: TGF-β 5 ng/mL, Rhein 10 μM
Experimental: To study the effect of Rhein on TGF-β induced transformation of PSCs to myofibroblast-like cells, LTC-14 cells were grown at a density of 1×10^5 in a 24-well plate, pre-incubated with TGF-β (5 ng/mL) for 24 hours and treated with or without Rhein (10 μM). At the time of harvest, cells were examined with morphological alterations under a light microscope.

[9] = system: Tgf-β1; test: Real-time PCR, TGF-β-stimulated LTC-14 cells: Tgf-β1; assay type: cell-based, rat; conditions: Rhein at 1, 10 and 100 μM; TGF-β 5 ng/mL
Source text: as §1

[10] = system: LTC-14 cells; assay type: cell-based
Experimental: LTC-14 cells were cultured at 37° C. under a humidified condition of 95% air and 5% CO2 in IMDM supplemented with 10% fetal bovine serum (FBS). Cells used in all the experiment were among passages 9 to 22. LTC-14 cells were seeded at a density of 1×10^4/well in a 96-well plate, and incubated with different concentrations of Rhein (dissolved in DMSO) for 24 hours. MTT reagent was added to the cells at the end of the 24-hour treatment period. After a 3-hour reaction time, MTT products were dissolved in DMSO and OD at 570 nm was taken.

[11] = system: Fn1; test: Expression of Fn1 in TGF-β-stimulated LTC-14 cells; assay type: cell-based, rat; conditions: recombinant TGF-β
[12] = system: Acta2; test: Real-time PCR, TGF-β-stimulated LTC-14 cells: Acta2; assay type: cell-based, rat; conditions: Rhein at 1, 10 and 100 μM; TGF-β 5 ng/mL
Source text: as §1

[13] = Body weights and tolerability of mice given Rhein orally; assay type: in vivo, C57BL6 mice
Experimental: as §2

[14] = Rhein group: 50 mg/kg/day oral for 6 weeks, no cerulein

With O=C(O)c1cc(O)c2c(c1)C(=O)c1cccc(O)c1C2=O [Rhein, 9,10-Dihydro-4,5-dihydroxy-9,10-dioxo-2-anthracenecarboxylic acid] the “TGF-β-elevated mRNA expression level of Col1-α1” value [1] was “significantly repressed”, the “TNF-α (ng/mL), Mean” value ([2]; Cer + Rh 3 wk: cerulein plus Rhein 50 mg/kg/day from week 4, 3 weeks) was 32.52# ng/mL and the “TNF-α (ng/mL), Mean” value ([2]; Cer + Rh 6 wk: cerulein plus Rhein 50 mg/kg/day for 6 weeks) was 31.18# ng/mL. The “TNF-α (ng/mL), Mean” value [2, 14] was 14.43 ng/mL, the “expression of α-SMA in the pancreatic tissues” value [3] was “significantly inhibits” and the “α-SMA expression (immunofluorescent staining)” value [4] was “remarkably suppresses”. The “histology of pancreatic tissues (acinar loss, lymphocyte infiltration, fibrosis)” value ([5]; CP mice, Rhein oral 50 mg/kg/day, H&E) was “less acinar loss (FIG. 1), lymphocyte infiltration and fibrosis”, the pancreatic weight ([5]; cerulein-induced pancreatitis mice, vs Cerulein group) was “significant restoration of pancreatic weight” and the “amounts of collagenous protein” value [6] was “notably reduced”. The “protein expression levels of fibronectin” value [7] was “remarkably decreased”, the “transformation of LTC-14 cells into myofibroblast-like phenotype” value [8] was “represses the transformation” and the “TGF-β-elevated mRNA expression level of Tgf-β1” value [9] was “significantly repressed”. For the same compound, the PSC proliferation ([10]; in vitro, dose-dependent) was “suppress PSC proliferation”, the “LD50 (cytotoxicity)” value ([10]; rat, 24 h) was “approximately 130 μM” and the “TGF-β-stimulated expression level of Fn1” value [11] was “suppresses”. For the same compound, the “TGF-β-elevated mRNA expression level of Acta2” value [12] was “significantly repressed”, the “Body wt (g), Mean” value ([13]; Cer + Rh 3 wk: cerulein injections plus Rhein 50 mg/kg/day from week 4, 3 weeks) was 24.07* g and the “Body wt (g), Mean” value ([13]; Cer + Rh 6 wk: cerulein injections plus Rhein 50 mg/kg/day oral gavage for 6 weeks) was 23.98* g. The “Body wt (g), Mean” value [13, 14] was 26.10 g and the adverse effects ([13]; oral administration, animal study) was “no adverse effects”.
